In patent publication US20160177395A1, “BIOMARKERS FOR THE PREDICTION OF RENAL INJURY” (priority 2007, published 2016):
Where “and” joins values, the source holds several entries; their conditions need not be identical. Equal entries are not always repeated. Entries after “also recorded” stand apart in the source; their conditions may differ.

Legend:
rat kidney samples = test: Random-Forest classifiers applied to un-labeled samples of T1, T2, T3 and control (Table 30); details: for Average 'Toxic' (%): average of the two classifiers
Experimental: To validate the optimal signature for classification of renal toxicity of a compound after five days of application a test of the signatory polynucleotide/gene expression in rat kidney samples consisting of tissues from rats exposed to three drug compounds and a single control group was carried out (Teva Pharmaceutical Industries, IL).
The two optimal classifiers (signatures described in Tables 26 and 27) were applied to the qRT-PCR reads of the un-labeled samples and their calls was used to assign a level of toxicity to each group and, eventually, each compound.
The classifiers described in Tables 26 and 27, were used for testing the un-labeled samples. Both classifiers were applied to the measurements of each sample, used the 30% bound from above, and the number of samples pass that bound in each group were summarized.

kidney = test: Renal histopathology of rats treated with T1, T2, T3; format: in vivo, rat
Experimental: Each group consisted of 6 male and 6 female rats. The additional groups consisted of 6 males and 6 female rats treated with control compound for a single day and for five days, as described in Table 24.
T2 “no observed effect level” (NOEL, i.e., the maximal dose at which no toxic effect is visible) is 15 mg/kg.
At autopsy, both kidneys of each animal were removed and each kidney was cross sectioned. Half of each kidney was sent to RNA extraction and analysis.

[1] = tested on: kidney tissues of treated or untreated rats; test: Real-time qRT-PCR of signature amplicons, validation stage, labeled and un-labeled samples (Table 23); details: for H31883_DB71_seg13 normalized qRT-PCR result / MUSCYCG1R_DB81_seg19-20 normalized qRT-PCR result / W41270_DB81_seg11 normalized qRT-PCR result: un-labeled sample, one line per animal; for AI045075_DB71_seg6 normalized qRT-PCR expression (Interferon stimulated exonuclease 20 (ISG20) transcript) / H31883_DB71_seg13 normalized qRT-PCR expression (Cyclin-G1 (CCNG1) transcript) / MUSCYCG1R_DB81_seg19-20 normalized qRT-PCR expression / W41270_DB81_seg11 normalized qRT-PCR expression (tumor necrosis factor receptor superfamily, member 12a transcript) / W64472_DB81_seg2 normalized qRT-PCR expression (Interferon stimulated exonuclease 20 (ISG20) transcript) / W83813_DB81_seg27 normalized qRT-PCR expression: un-labeled samples, kidney of individual male/female rats
Excerpt: New primers were designed for part of the transcripts, and new conditions for several qRT-PCR reactions were used, as described below.
The measurements were normalized in two steps. First—according to the house-keeping-genes normalization factor, and second—each plate was normalized according to ratio of the intensity measurements from samples appearing in it and in the shuffled (normalization) plate (Table 25 provides the plates details and the section “Inter-Plate Normalization” provides details of the normalization process). The normalized values were further scaled by a factor, for ease of viewing.
RT was prepared and qRT-PCR performed and analyzed as described hereinabove. qRT-PCR was performed for the four genes comprising the signature of the discovery stage described in Table 13. Two amplicons were tested for each gene—one representing the wild-type transcript, and another representing an alternative splice variant. Each amplicon was measured using the labeled samples described in Table 9 herein, as well as the un-labeled samples. Samples from both groups (labeled and un-labeled) were tested in seven 96 well plates as described in Table 25. In order to correct possible run to run variations, the following controls were added: 1. several samples were repeated in all 96 wells plates; 2. control shuffled plate was designed which combined samples from all seven test plates.
To account for possible differences of qRT-PCR measurements between the different plates due to experimental artifacts, a normalization plate was planned. This plate, designated hereinabove ‘shuffled plate’, contained samples from all other plates. Real Time PCR was performed on this plate using the primers appropriate for all candidates in tables 26 and 27. For each other plate (plates 1-7 above) and each amplicon, the samples appearing also in the shuffled plate were examined—the ratio between the transcript abundance as measured in the plate to the abundance as measured in the shuffled plate was calculated, outliers were manually removed, and the geometric mean of the left ratios was taken as an additional multiplicative normalization factor for the plate and amplicon.

[2] = Ds1, Day1, oral gavage, female rat kidney
[3] = Ds1, Day1, oral gavage, male rat kidney
[4] = Ds1, Day5, oral gavage, female rat kidney
[5] = Ds1, Day5, oral gavage, male rat kidney
[6] = Ds2, Day1, oral gavage, female rat kidney
[7] = Ds2, Day1, oral gavage, male rat kidney
[8] = Ds2, Day5, oral gavage, female rat kidney
[9] = Ds2, Day5, oral gavage, male rat kidney

Compound: CN(C)c1cccc2c1CCC2Nc1cc(=O)[nH]c(=O)[nH]1.Cl (stereo not shown) [T2]
- Average 'Toxic' (%) (rat kidney samples; Ds1 Day1 Female): 20%
- Average 'Toxic' (%) (rat kidney samples; Ds1 Day1 Male): 25%
- Average 'Toxic' (%) (rat kidney samples; Ds1 Day5 Female): 30%
- Average 'Toxic' (%) (rat kidney samples; Ds1 Day5 Male): 83%
- Average 'Toxic' (%) (rat kidney samples; Ds2 Day1 Female): 58.5%
- Average 'Toxic' (%) (rat kidney samples; Ds2 Day1 Male): 0%
- Average 'Toxic' (%) (rat kidney samples; Ds2 Day5 Female): 50%
- Average 'Toxic' (%) (rat kidney samples; Ds2 Day5 Male): 30%
- Toxicity conclusion from classifier calls (rat kidney samples; signatures of Tables 26 and 27, 30% bound): nephrotoxic agents
- Kidney histopathology findings (kidney; 50 mg/kg, after 7 days): direct cortical tubular toxicity; also recorded: multifocal, consisting of tubular basophilia, indicating regeneration following necrosis; also recorded: basophilic tubules in the cortex, indicating post-necrotic regeneration
- Time after which visible pathological damage was seen (kidney; rats): 7 days
- no observed effect level (NOEL) (kidney; rats): 15 mg/kg
- Renal damage (kidney; rats, dose and duration as in the value): renal damage after 7 days of treatment at the 50 mg/kg dose
- H31883_DB71_seg13 normalized qRT-PCR result [1, 2]: 0.183 and 0.213 and 0.29 and 0.387
- MUSCYCG1R_DB81_seg19-20 normalized qRT-PCR result [1, 2]: 0.54 and 0.419 and 0.836 and 0.49
- W41270_DB81_seg11 normalized qRT-PCR result [1, 2]: 0.492 and 0.468 and 1.072 and 0.969
- H31883_DB71_seg13 normalized qRT-PCR result [1, 3]: 0.955 and 0.798 and 0.931 and 1.182
- MUSCYCG1R_DB81_seg19-20 normalized qRT-PCR result [1, 3]: 0.98 and 0.709 and 1.059 and 1.253
- W41270_DB81_seg11 normalized qRT-PCR result [1, 3]: 0.801 and 0.791 and 1.076 and 1.477
- H31883_DB71_seg13 normalized qRT-PCR result [1, 4]: 0.865 and 0.922 and 0.961 and 0.824 and 1.303
- MUSCYCG1R_DB81_seg19-20 normalized qRT-PCR result [1, 4]: 0.771 and 1.02 and 1.923 and 1.232 and 0.94
- W41270_DB81_seg11 normalized qRT-PCR result [1, 4]: 0.464 and 0.532 and 0.616 and 0.572 and 0.773
- H31883_DB71_seg13 normalized qRT-PCR result [1, 5]: 0.11 and 0.209 and 0.27 and 0.299
- MUSCYCG1R_DB81_seg19-20 normalized qRT-PCR result [1, 5]: 1.566 and 1.449 and 1.516 and 1.237
- W41270_DB81_seg11 normalized qRT-PCR result [1, 5]: 1.445 and 1.42 and 1.258 and 1.447
- H31883_DB71_seg13 normalized qRT-PCR result [1, 6]: 0.289 and 0.365 and 0.32 and 0.444 and 0.254
- MUSCYCG1R_DB81_seg19-20 normalized qRT-PCR result [1, 6]: 2.008 and 0.857 and 3.044 and 2.152 and 0.71
- W41270_DB81_seg11 normalized qRT-PCR result [1, 6]: 1.104 and 0.741 and 1.73 and 1.211 and 0.666
- H31883_DB71_seg13 normalized qRT-PCR result [1, 7]: 0.773 and 0.595 and 0.741 and 0.777 and 0.725 and 0.614
- MUSCYCG1R_DB81_seg19-20 normalized qRT-PCR result [1, 7]: 1.006 and 0.729 and 0.541 and 1.015 and 0.588 and 0.471
- W41270_DB81_seg11 normalized qRT-PCR result [1, 7]: 1.462 and 0.692 and 0.656 and 1.23 and 0.866 and 0.837
- H31883_DB71_seg13 normalized qRT-PCR result [1, 8]: 0.269 and 0.354
- MUSCYCG1R_DB81_seg19-20 normalized qRT-PCR result [1, 8]: 0.799 and 3.003
- W41270_DB81_seg11 normalized qRT-PCR result [1, 8]: 0.554 and 1.029
- H31883_DB71_seg13 normalized qRT-PCR result [1, 9]: 0.615 and 1.022 and 0.962 and 0.626
- MUSCYCG1R_DB81_seg19-20 normalized qRT-PCR result [1, 9]: 1.338 and 0.831 and 0.83 and 0.878
- W41270_DB81_seg11 normalized qRT-PCR result [1, 9]: 0.899 and 1.446 and 0.623 and 1.049
- AI045075_DB71_seg6 normalized qRT-PCR expression (Interferon stimulated exonuclease 20 (ISG20) transcript) ([1]; dose Ds1, Day1, oral gavage): 1.308 and 0.744 and 1.159
- H31883_DB71_seg13 normalized qRT-PCR expression (Cyclin-G1 (CCNG1) transcript) ([1]; dose Ds1, Day1, oral gavage): 0.88 and 0.67 and 0.613 and 0.695 and 0.464 and 0.951 and 0.536 and 0.646 and 0.629 and 0.7 (2×)
- MUSCYCG1R_DB81_seg19-20 normalized qRT-PCR expression ([1]; dose Ds1, Day1, oral gavage): 0.938 and 0.555 and 0.115 and 0.859 and 0.124 and 0.888 and 0.267 and 0.157 and 0.47 and 0.126 and 0.51
- W41270_DB81_seg11 normalized qRT-PCR expression (tumor necrosis factor receptor superfamily, member 12a transcript) ([1]; dose Ds1, Day1, oral gavage): 0.481 and 0.662 and 0.473 and 0.76 and 0.474 and 0.876 and 0.959 and 0.518 and 0.823 and 3.38 and 0.623
- W64472_DB81_seg2 normalized qRT-PCR expression (Interferon stimulated exonuclease 20 (ISG20) transcript) ([1]; dose Ds1, Day1, oral gavage): 1.863 and 0.632 and 1.305
- W83813_DB81_seg27 normalized qRT-PCR expression ([1]; dose Ds1, Day1, oral gavage): 0.305 and 0.666 and 0.84
- AI045075_DB71_seg6 normalized qRT-PCR expression (Interferon stimulated exonuclease 20 (ISG20) transcript) ([1]; dose Ds1, Day5, oral gavage): 1.016 and 1.11
- H31883_DB71_seg13 normalized qRT-PCR expression (Cyclin-G1 (CCNG1) transcript) ([1]; dose Ds1, Day5, oral gavage): 1.884 and 1.539 and 1.163 and 1.329 and 1.66 and 1.079 and 0.936 and 0.978 and 1.439 and 1.149 and 2.147
- MUSCYCG1R_DB81_seg19-20 normalized qRT-PCR expression ([1]; dose Ds1, Day5, oral gavage): 0.107 and 0.113 and 1.399 and 1.006 and 0.148 and 0.127 and 0.736 and 1.386 and 1.293 and 0.172 and 0.179
- W41270_DB81_seg11 normalized qRT-PCR expression (tumor necrosis factor receptor superfamily, member 12a transcript) ([1]; dose Ds1, Day5, oral gavage): 0.233 and 0.493 and 0.626 and 1.149 and 0.321 and 0.477 and 0.83 and 1.524 and 1.111 and 0.397 and 0.337
- W64472_DB81_seg2 normalized qRT-PCR expression (Interferon stimulated exonuclease 20 (ISG20) transcript) ([1]; dose Ds1, Day5, oral gavage): 0.929 and 0.996
- W83813_DB81_seg27 normalized qRT-PCR expression ([1]; dose Ds1, Day5, oral gavage): 0.248 and 0.203
- AI045075_DB71_seg6 normalized qRT-PCR expression (Interferon stimulated exonuclease 20 (ISG20) transcript) ([1]; dose Ds2, Day1, oral gavage): 1.43
- H31883_DB71_seg13 normalized qRT-PCR expression (Cyclin-G1 (CCNG1) transcript) ([1]; dose Ds2, Day1, oral gavage): 0.832 and 0.773 and 0.635 and 0.722 and 0.618 and 0.999 and 0.602 and 0.522 and 1.006 and 1.079 and 0.84 and 0.762
- MUSCYCG1R_DB81_seg19-20 normalized qRT-PCR expression ([1]; dose Ds2, Day1, oral gavage): 0.211 and 0.531 and 0.505 and 0.585 and 0.475 and 0.661 and 0.197 and 0.458 and 0.167 and 0.192 and 0.14 and 0.111
- W41270_DB81_seg11 normalized qRT-PCR expression (tumor necrosis factor receptor superfamily, member 12a transcript) ([1]; dose Ds2, Day1, oral gavage): 1.747 and 1.016 and 0.424 and 0.589 and 0.545 and 0.528 and 0.384 and 0.577 and 1.729 and 1.125 and 0.594 and 0.92
- W64472_DB81_seg2 normalized qRT-PCR expression (Interferon stimulated exonuclease 20 (ISG20) transcript) ([1]; dose Ds2, Day1, oral gavage): 0.804
- W83813_DB81_seg27 normalized qRT-PCR expression ([1]; dose Ds2, Day1, oral gavage): 0.201
- AI045075_DB71_seg6 normalized qRT-PCR expression (Interferon stimulated exonuclease 20 (ISG20) transcript) ([1]; dose Ds2, Day5, oral gavage): 0.609 and 1.842 and 0.637
- H31883_DB71_seg13 normalized qRT-PCR expression (Cyclin-G1 (CCNG1) transcript) ([1]; dose Ds2, Day5, oral gavage): 1.386 and 0.676 and 1.01 and 1.128 and 1.161 and 1.146 and 1.057 and 0.942 and 1.256
- MUSCYCG1R_DB81_seg19-20 normalized qRT-PCR expression ([1]; dose Ds2, Day5, oral gavage): 0.345 and 0.169 and 0.513 and 0.148 and 0.185 and 0.997 and 0.746 and 0.686 and 0.655
- W41270_DB81_seg11 normalized qRT-PCR expression (tumor necrosis factor receptor superfamily, member 12a transcript) ([1]; dose Ds2, Day5, oral gavage): 1.186 and 0.308 and 0.497 and 0.711 and 1.237 and 0.857 and 0.788 and 0.457 and 0.668
- W64472_DB81_seg2 normalized qRT-PCR expression (Interferon stimulated exonuclease 20 (ISG20) transcript) ([1]; dose Ds2, Day5, oral gavage): 0.731 and 1.178 and 0.485
- W83813_DB81_seg27 normalized qRT-PCR expression ([1]; dose Ds2, Day5, oral gavage): 0.601 and 0.555 and 0.354
